Patent US10858366B2 (priority 2016, dated 2020)

How the values were obtained:
[1] = biological target: truncated Influenza A/victoria/75 PA(1-209) (Influenza A virus (strain A/Victoria/3/1975 H3N2), UniProt P31343); experiment: Endonuclease Inhibition Assay (PA FP Assay); assay type: binding; details: fluorescence polarization, fluorescein-labeled probe
Method: Endonuclease Inhibition Assay (PA FP Assay)
Compounds were dissolved and serially diluted in 100% DMSO then 0.5 μl was transferred to 384-well plates. 50 nM truncated Influenza A/victoria/75 PA(1-209) was prepared in assay buffer (20 mM Tris, pH=7.5, 10 mM MgCl2, 0.01% Tween 20, 100 mM NaCl and 1 mM DTT) and 20 ul was added to each well of assay plate with compounds, centrifuged for 1 min at 1000 rpm and incubated for 30 min at room temperature. 20 μl of 20 nM fluorescein-labeled probe [5-(4-(3-carboxy-3-oxopropanoyl)-4-(4-chlorobenzyl)piperidine-1-carbonyl)-2-(6-hydroxy-3-oxo-3H-xanthen-9-yl)benzoic acid] in assay buffer was then added, centrifuged for 1 min at 1000 rpm and incubated for 60 min at room temperature.
Fluorescence polarization was measured on Perkin Elmer Envision plate reader with excitation at 480 nm and emission at 535 nm and reported in millipolarization units (mP). IC50 values were determined relative to wells containing 125 uM of a compound known to bind to the active site of PA and uninhibited wells containing 1.25% DMSO.

[2] = biological target: RNP_CAL (PB2, PB1, PA, NP, influenza A Luciferase reporter in 293T cells) (Influenza A virus (strain swl A/California/04/2009 H1N1), UniProt C3W5S0); experiment: cell-based

SMILES	IC50 [1] [nM]	EC50 [2] [nM]
O=c1ccn2c(c1O)-c1ncc(-c3ccccc3)n1C[C@@H]2C(c1ccccc1)c1ccccc1 [Example 53, (S)-6-benzhydryl-11-hydroxy-3-phenyl-5H-imidazo [1,2-a] pyrido[2,1-c]pyrazin-10(6H)-one]	60	3000
O=c1ccn2c(c1O)-c1ncc(C3CC3)n1C[C@@H]2C(c1ccccc1)c1ccccc1 [Example 8, (S)-6-benzhydryl-3-cyclopropyl-11-hydroxy-5H-imidazo[1,2-a]pyrido[2,1-c]pyrazin-10(6H)-one]	40	150
O=c1cnn2c(c1O)-c1nccn1C[C@@H]2[C@H](c1ccc(F)cc1)c1ccc(F)cc1Br [Example 39, (S)-6-((R)-(2-bromo-4-fluorophenyl)(4-fluorophenyl)methyl)-11-hydroxy-5,6-dihydro-10H-imidazo[2′,1′:3,4]pyrazino[1,2-b]pyridazin-10-one]	10	33
O=c1cnn2c(c1O)-c1nccn1CC2C(c1cccc(F)c1)c1cccc(F)c1 (stereo not shown) [Example 2, 6-(bis(3-fluorophenyl)methyl)-11-hydroxy-5,6-dihydro-10H-imidazo[2′,1′:3,4]pyrazino[1,2-b]pyridazin-10-one]	70	110
O=c1cnn2c(c1O)-c1nccn1C[C@@H]2C(c1cccc(F)c1)c1cccc(F)c1 [Example 23, (S)-6-(bis(3-fluorophenyl)methyl)-11-hydroxy-5,6-dihydro-10H-imidazo[2′,1′:3,4]pyrazino[1,2-b]pyridazin-10-one]	50	39
O=c1ccn2c(c1O)-c1ncc(CO)n1C[C@@H]2C(c1ccccc1)c1ccccc1 [Example 54, (S)-6-benzhydryl-11-hydroxy-3-(hydroxymethyl)-5,6-dihydro-10H-imidazo [1,2-a]pyrido[2,1-c]pyrazin-10-one]	100	
O=c1ccn2c(c1O)-c1ncc(-c3cn[nH]c3)n1C[C@@H]2C(c1ccccc1)c1ccccc1 [Example 52, (S)-6-benzhydryl-11-hydroxy-3-(1H-pyrazol-4-yl)-5,6-dihydro-10H-imidazo[1,2-a]pyrido[2,1-c]pyrazin-10-one]	8	8300
O=c1cnn2c(c1O)-c1nccn1CC2C(c1ccccc1)c1ccccc1 (stereo not shown) [Example 1, 6-Benzhydryl-11-hydroxy-5H-imidazo[2′,1′:3,4]pyrazino[1,2-b]pyridazin-10(6H)-one]	50	110
COCc1cnc2n1C[C@H](C(c1ccccc1)c1ccccc1)n1ccc(=O)c(O)c1-2 [Example 56, (S)-6-benzhydryl-11-hydroxy-3-(methoxymethyl)-5H-imidazo [1,2-a]pyrido[2,1-c]pyrazin-10(6H)-one]	100	92
Cc1nc2n(c1C)C[C@H](C(c1ccccc1)c1ccccc1)n1ccc(=O)c(O)c1-2 [Example 14, (S)-6-benzhydryl-11-hydroxy-2,3-dimethyl-5H-imidazo[1,2-a]pyrido[2,1-c]pyrazin-10(6H)-one]	100	4200
Cc1ccccc1[C@H](c1ccc(F)cc1)[C@H]1Cn2ccnc2-c2c(O)c(=O)cnn21 [Example 40, (S)-6-((S)-(4-fluorophenyl)(o-tolyl)methyl)-11-hydroxy-5,6-dihydro-10H-imidazo[2′,1′:3,4]pyrazino[1,2-b]pyridazin-10-one]	20	32
Cc1cccc([C@H](c2ccc(F)cc2)[C@H]2Cn3ccnc3-c3c(O)c(=O)cnn32)c1 [Example 38, (S)-6-((S)-(4-fluorophenyl)(m-tolyl)methyl)-11-hydroxy-5,6-dihydro-10H-imidazo[2′,1′:3,4]pyrazino[1,2-b]pyridazin-10-one]	40	49
O=c1cnn2c(c1O)-c1nccn1C[C@H]2C(c1cccc(Cl)c1)c1cccc(Cl)c1 [Example 16, (R)-6-(bis(3-chlorophenyl)methyl)-11-hydroxy-5H-imidazo[2′,1′:3,4] pyrazino [1,2-b]pyridazin-10(6H)-one]		820
CS(=O)(=O)c1cccc([C@H](c2ccc(F)cc2)[C@H]2Cn3ccnc3-c3c(O)c(=O)cnn32)c1 [Example 42, (S)-6-((S)-(4-fluorophenyl)(3-(methylsulfonyl)phenyl)methyl)-11-hydroxy-5,6-dihydro-10H-imidazo[2′,1′:3,4]pyrazino[1,2-b]pyridazin-10-one]		2800
O=c1cnn2c(c1O)-c1nccn1C[C@@H]2[C@@H](c1ccc(F)cc1)c1cccc(Br)c1 [Example 30, (S)-6-((S)-(3-bromophenyl)(4-fluorophenyl)methyl)-11-hydroxy-5,6-dihydro-10H-imidazo[2′,1′:3,4]pyrazino[1,2-b]pyridazin-10-one]	10	
O=c1ccn2c(c1O)-c1nccn1C1(COC1)N2C1c2ccccc2CSc2ccccc21 (stereo not shown) [Example 80, 6-(6,11-dihydrodibenzo[b,e]thiepin-11-yl)-11-hydroxy-6H,10H-spiro[imidazo[1,2-d]pyrido[2,1-f][1,2,4]triazine-5,3′-oxetan]-10-one]		10
O=c1ccn2c(c1O)-c1nccn1CN2C1c2ccccc2CSc2ccccc21 (stereo not shown) [Example 74, 6-(6,11-dihydrodibenzo[b,e]thiepin-11-yl)-11-hydroxy-5,6-dihydro-10H-imidazo[1,2-d]pyrido[2,1-f][1,2,4]triazin-10-one]		84
O=c1cnn2c(c1O)-c1nccn1C[C@@H]2[C@H](c1cccc(F)c1)c1ccc(F)cc1Br [Example 36, (S)-6-((R)-(2-bromo-4-fluorophenyl)(3-fluorophenyl)methyl)-11-hydroxy-5,6-dihydro-10H-imidazo[2′,1′:3,4]pyrazino[1,2-b]pyridazin-10-one]		27
COC(=O)OCOc1c2n(ncc1=O)[C@@H](C(c1ccc(F)cc1)c1ccc(F)cc1)Cn1ccnc1-2 [Example 88, (S)-((6-(bis(4-fluorophenyl)methyl)-10-oxo-5,6-dihydro-10H-imidazo[2′,1′:3,4]pyrazino[1,2-b]pyridazin-11-yl)oxy)methyl methyl carbonate]		42
Cc1ccccc1[C@H](c1ccc(F)cc1)[C@H]1Cn2c(CO)cnc2-c2c(O)c(=O)cnn21 [Example 51, (S)-6-((S)-(4-fluorophenyl)(o-tolyl)methyl)-11-hydroxy-3-(hydroxymethyl)-5,6-dihydro-10H-imidazo[2′,1′:3,4]pyrazino[1,2-b]pyridazin-10-one]		90
O=c1cnn2c(c1O)-c1nc(Br)c(Br)n1C[C@@H]2C(c1ccc(F)cc1)c1ccc(F)cc1 [Example 48, (S)-6-(bis(4-fluorophenyl)methyl)-2,3-dibromo-11-hydroxy-5,6-dihydro-10H-imidazo[2′,1′:3,4]pyrazino[1,2-b]pyridazin-10-one]		4300
O=c1cnn2c(c1O)-c1nccn1CC2C(c1ccc(F)cc1)c1ccc(F)cc1 (stereo not shown) [Example 12, 6-(bis(4-fluorophenyl)methyl)-11-hydroxy-5H-imidazo[2′,1′:3,4]pyrazino[1,2-b]pyridazin-10(6H)-one]		800
Cc1ccccc1[C@H](c1ccc(F)cc1Br)[C@H]1Cn2ccnc2-c2c(O)c(=O)cnn21 [Example 35, (S)-6-((R)-(2-bromo-4-fluorophenyl)(o-tolyl)methyl)-11-hydroxy-5,6-dihydro-10H-imidazo[2′,1′:3,4]pyrazino[1,2-b]pyridazin-10-one]		50
